Assay results: patent US20240308960A1 (Sumitomo Pharma Co., Ltd., priority 2021, published 2024)

Each compound was assayed against T1, Human orexin receptor type 2 (Homo sapiens, UniProt O43614) (assay: Test Example 1: agonist activity for orexin receptor type 2 (aequorin luminescence, intracellular calcium mobilization)). Conditions: compound 10 μm; CHO cells transiently expressing human orexin receptor type 2 and apoaequorin; relative percentage of luminescence for the luminescence (100%) of Orexin A (100 μM).
T1 sequence (O43614 1-444): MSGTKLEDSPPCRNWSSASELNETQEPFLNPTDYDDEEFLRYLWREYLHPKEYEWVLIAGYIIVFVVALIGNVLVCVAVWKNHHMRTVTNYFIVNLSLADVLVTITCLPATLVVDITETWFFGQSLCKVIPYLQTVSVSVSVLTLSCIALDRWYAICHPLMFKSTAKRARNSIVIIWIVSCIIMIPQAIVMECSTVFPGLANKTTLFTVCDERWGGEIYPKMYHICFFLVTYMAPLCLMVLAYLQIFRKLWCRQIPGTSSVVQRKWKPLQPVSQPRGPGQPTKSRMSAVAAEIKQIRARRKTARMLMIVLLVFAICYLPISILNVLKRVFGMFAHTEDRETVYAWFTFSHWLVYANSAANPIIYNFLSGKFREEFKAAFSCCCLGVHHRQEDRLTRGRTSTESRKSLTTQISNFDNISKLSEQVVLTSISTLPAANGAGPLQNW
Method: Human orexin receptor type 2 and apoaequorin were transiently expressed in CHO cells, and the agonist activity was evaluated based on intracellular calcium mobilization with ligand stimulation. The CHO cells transiently-expressed human orexin receptor type 2 and apoaequorin were seeded on a 384-well plate by 2,000 cells/well, and then incubated for 16-22 hours. After the plate was returned to room temperature, Coelenterazine hcp (final concentration: 1 μM) was added to the plate, and the plate was allowed to stand at room temperature for 2 hours. And then, Orexin A or each test compound was added to the plate, and the luminescence of the cells was measured with FDSS7000 (Hamamatsu Photonics K. K.), wherein Orexin A and each test compound were dissolved in DMSO (final concentration: 0.1%), and diluted with a buffer (Hanks, 20 mM HEPES, 0.1% BSA). The agonist activity of each test compound for orexin receptor type 2 was calculated as relative percentage of luminescence for the luminescence (100%) of Orexin A (100 μM).

Compared with `Cc1ccc(C2CCN(C(=O)Nc3c(F)cccc3OC3CCN(C(C)C)CC3)CC2)cc1` [Example 62, N-(2-fluoro-6-{[1-(propan-2-yl)piperidin-4-yl]oxy}phenyl)-4-(4-methylphenyl)piperidine-1-carboxamide], `Cc1ccc(C2CCN(C(=O)Nc3c(F)cccc3C3CCN(C(C)C)CC3)CC2)cc1` [Example 39, N-{2-fluoro-6-[1-(propan-2-yl)piperidin-4-yl]phenyl}-4-(4-methylphenyl)piperidine-1-carboxamide] is higher in “Agonist Activity (%)” value: 75% for the first, 106% for the second.

Compared with `Cc1ccc(C2CCN(C(=O)Nc3c(F)cccc3N3C4CCC3CN(C(C)C)C4)CC2)cc1` [Example 161, N-{2-Fluoro-6-[3-(propan-2-yl)-3,8-diazabicyclo[3.2.1]octan-8-yl]phenyl}-4-(4-methylphenyl)piperidine-1-carboxamide], `Cc1ccc(C2CCN(C(=O)Nc3c(F)cccc3N3C[C@H]4C[C@@H]3CN4C(C)C)CC2)cc1` [Example 151, N-{2-fluoro-6-[(1R,4R)-5-(propan-2-yl)-2,5-diazabicyclo[2.2.1]heptan-2-yl]phenyl}-4-(4-methylphenyl)piperidine-1-carboxamide] is higher in “Agonist Activity (%)” value: 90% for the first, 97% for the second.

First: CC(C)N1CCN(c2cccc(F)c2NC(=O)N2CCC(C)(c3noc(C4CCCC4)n3)CC2)CC1 [Example 73, 4-(5-cyclopentyl-1,2,4-oxadiazol-3-yl)-N-{2-fluoro-6-[4-(propan-2-yl)piperazin-1-yl]phenyl}-4-methylpiperidine-1-carboxamide]
Second: CC(C)N1CCN(c2cccc(Cl)c2NC(=O)N2CCC(C)(c3noc(C4CCCC4)n3)CC2)CC1 [Example 74, N-{2-chloro-6-[4-(propan-2-yl)piperazin-1-yl]phenyl}-4-(5-cyclopentyl-1,2,4-oxadiazol-3-yl)-4-methylpiperidine-1-carboxamide]
The “Agonist Activity (%)” value of the first is lower: 141% for the first, 145% for the second.

First: CC(C)N1CCN(c2ccccc2NC(=O)N2CCC(c3ccccc3)CC2)CC1 [Example 7, 4-phenyl-N-{2-[4-(propan-2-yl)piperazin-1-yl]phenyl}piperidine-1-carboxamide]
Second: Cc1ccc(C2CCN(C(=O)Nc3ccccc3N3CCN(C(C)C)CC3)CC2)cc1 [Example 121]
The “Agonist Activity (%)” value of the first is higher: 154% for the first, 130% for the second.

First: Cc1ccc(C2CCN(C(=O)Nc3c(Cl)cccc3C3=CCN(C(C)C)CC3)CC2)cc1 [Example 132, N-{2-chloro-6-[1-(propan-2-yl)-1,2,3,6-tetrahydropyridin-4-yl]phenyl}-4-(4-methylphenyl)piperidine-1-carboxamide]
Second: Cc1ccc(C2CCN(C(=O)Nc3c(OC(C)C)cccc3C3CCN(C(C)C)CC3)CC2)cc1 [Example 129, 4-(4-methylphenyl)-N-{2-[(propan-2-yl)oxy]-6-[1-(propan-2-yl)piperidin-4-yl]phenyl}piperidine-1-carboxamide]
The “Agonist Activity (%)” value of the first is higher: 171% for the first, 138% for the second.

First: CC(C)N1CCC(c2cccc(F)c2NC(=O)N2CCC(C)(c3noc(C4CC4)n3)CC2)CC1 [Example 43, 4-(5-cyclopropyl-1,2,4-oxadiazol-3-yl)-N-{2-fluoro-6-[1-(propan-2-yl)piperidin-4-yl]phenyl}-4-methylpiperidine-1-carboxamide]
Second: CC(C)N1CCN(c2cccc(Br)c2NC(=O)N2CCC(C)(c3noc(C4CC4)n3)CC2)CC1 [Example 88, N-{2-bromo-6-[4-(propan-2-yl)piperazin-1-yl]phenyl}-4-(5-cyclopropyl-1,2,4-oxadiazol-3-yl)-4-methylpiperidine-1-carboxamide]
The “Agonist Activity (%)” value of the first is lower: 135% for the first, 161% for the second.

First: COCCN1CCN(c2ccccc2NC(=O)N2CCC(c3ccc(C)cc3)CC2)CC1 [Example 125, N-{2-[4-(2-methoxyethyl)piperazin-1-yl]phenyl}-4-(4-methylphenyl)piperidine-1-carboxamide]
Second: Cc1ccc(C2CCN(C(=O)Nc3ccccc3N3CCN(C)CC3)CC2)cc1 [Example 123, 4-(4-methylphenyl)-N-[2-(4-methylpiperazin-1-yl)phenyl]piperidine-1-carboxamide]
The “Agonist Activity (%)” value of the first is higher: 141% for the first, 105% for the second.

First: CC(C)N1CCN(c2cccc(Cl)c2NC(=O)N2CCC(C)(c3noc(C4(C(F)(F)F)CC4)n3)CC2)CC1 [Example 107, N-{2-chloro-6-[4-(propan-2-yl)piperazin-1-yl]phenyl}-4-methyl-4-{5-[1-(trifluoromethyl)cyclopropyl]-1,2,4-oxadiazol-3-yl}piperidine-1-carboxamide]
Second: CC(C)N1CCN(c2cccc(Cl)c2NC(=O)N2CCC(C)(c3noc(C4(C)CC4)n3)CC2)CC1 [Example 80, N-{2-chloro-6-[4-(propan-2-yl)piperazin-1-yl]phenyl}-4-methyl-4-[5-(1-methylcyclopropyl)-1,2,4-oxadiazol-3-yl]piperidine-1-carboxamide]
The “Agonist Activity (%)” value of the first is higher: 163% for the first, 157% for the second.

Compared with `CCN1CCN(c2ccccc2NC(=O)N2CCC(c3cc(OC)cc(OC)c3)CC2)CC1` [Example 3, 4-(3,5-dimethoxyphenyl)-N-[2-(4-ethylpiperazin-1-yl)phenyl]piperidine-1-carboxamide], `CC(C)N1CCN(c2ccccc2NC(=O)N2CCC(C)(c3nc(-c4ccccc4)no3)CC2)CC1` [Example 12, 4-methyl-4-(3-phenyl-1,2,4-oxadiazol-5-yl)-N-{2-[4-(propan-2-yl)piperazin-1-yl]phenyl}piperidine-1-carboxamide] is higher in “Agonist Activity (%)” value: 27% for the first, 123% for the second.

Going from `CC1(C#N)CCN(C(=O)Nc2c(Cl)cccc2C2=CCN(C3CCC3)CC2)CC1` [Example 159, N-[2-chloro-6-(1-cyclobutyl-1,2,3,6-tetrahydropyridin-4-yl)phenyl]-4-cyano-4-methylpiperidine-1-carboxamide] to `CC(CF)N1CC=C(c2cccc(Cl)c2NC(=O)N2CCC(C)(c3noc(C4CC4)n3)CC2)CC1` (stereo not drawn) [Example 142, N-{2-chloro-6-[1-(1-fluoropropan-2-yl)-1,2,3,6-tetrahydropyridin-4-yl]phenyl}-4-(5-cyclopropyl-1,2,4-oxadiazol-3-yl)-4-methylpiperidine-1-carboxamide], the “Agonist Activity (%)” value falls from 150% to 130%.

Going from `CC(C)c1ccc(-c2cccc(F)c2NC(=O)N2CCC(C)(c3noc(C4CC4)n3)CC2)cc1` [Example 65, 4-(5-cyclopropyl-1,2,4-oxadiazol-3-yl)-N-[3-fluoro-4′-(propan-2-yl) [1,1′-biphenyl]-2-yl]-4-methylpiperidine-1-carboxamide] to `CC(C)[C@@H]1CO[C@H](c2cccc(Cl)c2NC(=O)N2CCC(C)(c3noc(C4CC4)n3)CC2)CN1` (racemic) [Example 168, Rac-N-{2-chloro-6-[(2R,5R)-5-(propan-2-yl)morpholin-2-yl]phenyl}-4-(5-cyclopropyl-1,2,4-oxadiazol-3-yl)-4-methylpiperidine-1-carboxamide], the “Agonist Activity (%)” value rises from 93% to 184%.

First: Cc1cc(C2(C)CCN(C(=O)Nc3c(Cl)cccc3N3CCN(C(C)C)CC3)CC2)no1 [Example 84, N-{2-chloro-6-[4-(propan-2-yl)piperazin-1-yl]phenyl}-4-methyl-4-(5-methyl-1,2-oxazol-3-yl)piperidine-1-carboxamide]
Second: CC(C)N1CCN(c2cccc(Cl)c2NC(=O)N2CCC(C)(c3noc([C@H]4C[C@H]4C)n3)CC2)CC1 [Example 117, N-{2-chloro-6-[4-(propan-2-yl)piperazin-1-yl]phenyl}-4-methyl-4-{5-[(1S,2R)-2-methylcyclopropyl]-1,2,4-oxadiazol-3-yl}piperidine-1-carboxamide]
The “Agonist Activity (%)” value of the first is lower: 110% for the first, 158% for the second.

Going from `COc1cccc(N2CCN(C(C)C)CC2)c1NC(=O)N1CCC(C)(c2noc(C(F)(F)F)n2)CC1` [Example 25, N-{2-methoxy-6-[4-(propan-2-yl)piperazin-1-yl]phenyl}-4-methyl-4-[5-(trifluoromethyl)-1,2,4-oxadiazol-3-yl]piperidine-1-carboxamide] to `CC(C)N1CCN(c2cccc(Cl)c2NC(=O)N2CCC(C)(c3noc(CC(F)(F)F)n3)CC2)CC1` [Example 119, N-{2-chloro-6-[4-(propan-2-yl)piperazin-1-yl]phenyl}-4-methyl-4-[5-(2,2,2-trifluoroethyl)-1,2,4-oxadiazol-3-yl]piperidine-1-carboxamide], the “Agonist Activity (%)” value rises from 136% to 154%.

Compared with `CC(C)N1CCN(c2cccc(Cl)c2NC(=O)N2CCC(C)(c3noc(CC4CC4)n3)CC2)CC1` [Example 105, N-{2-chloro-6-[4-(propan-2-yl)piperazin-1-yl]phenyl}-4-[5-(cyclopropylmethyl)-1,2,4-oxadiazol-3-yl]-4-methylpiperidine-1-carboxamide], `CC(C)N1CCN(c2cccc(Cl)c2NC(=O)N2CCC(C)(c3noc(C4CC4)n3)CC2)CC1` [Example 67, N-{2-chloro-6-[4-(propan-2-yl)piperazin-1-yl]phenyl}-4-(5-cyclopropyl-1,2,4-oxadiazol-3-yl)-4-methylpiperidine-1-carboxamide] is lower in “Agonist Activity (%)” value: 165% for the first, 154% for the second.

Compared with `CC1(c2noc(C3CC3)n2)CCN(C(=O)Nc2c(Cl)cccc2N2CCN(C3CC3)CC2)CC1` [Example 113, N-[2-chloro-6-(4-cyclopropylpiperazin-1-yl)phenyl]-4-(5-cyclopropyl-1,2,4-oxadiazol-3-yl)-4-methylpiperidine-1-carboxamide], `CC(C)c1nc(C2(C)CCN(C(=O)Nc3ccccc3N3CCN(C(C)C)CC3)CC2)no1` [Example 19, 4-methyl-4-[5-(propan-2-yl)-1,2,4-oxadiazol-3-yl]-N-{2-[4-(propan-2-yl)piperazin-1-yl]phenyl}piperidine-1-carboxamide] is lower in “Agonist Activity (%)” value: 157% for the first, 133% for the second.
